Measured values published in patent US8288429B2, “2-aza-bicyclo[3.3.0]octane derivatives” (Actelion Pharmaceuticals Ltd., priority 2007, dated 2012).
Read-outs that look alike come from different tables or passages of the source.

Legend:
human orexin-1 receptor = target: T1, human orexin-1 receptor (Homo sapiens, UniProt O43613); experiment: Intracellular calcium measurement (FLIPR), orexin-A induced response in CHO cells expressing the human orexin-1 receptor; type: cell-based; settings: 3 nM orexin-A as agonist
T1 construct: expressed in transfected cells; host or cells: CHO cells (selected with G418)
T1 sequence (O43613 1-425): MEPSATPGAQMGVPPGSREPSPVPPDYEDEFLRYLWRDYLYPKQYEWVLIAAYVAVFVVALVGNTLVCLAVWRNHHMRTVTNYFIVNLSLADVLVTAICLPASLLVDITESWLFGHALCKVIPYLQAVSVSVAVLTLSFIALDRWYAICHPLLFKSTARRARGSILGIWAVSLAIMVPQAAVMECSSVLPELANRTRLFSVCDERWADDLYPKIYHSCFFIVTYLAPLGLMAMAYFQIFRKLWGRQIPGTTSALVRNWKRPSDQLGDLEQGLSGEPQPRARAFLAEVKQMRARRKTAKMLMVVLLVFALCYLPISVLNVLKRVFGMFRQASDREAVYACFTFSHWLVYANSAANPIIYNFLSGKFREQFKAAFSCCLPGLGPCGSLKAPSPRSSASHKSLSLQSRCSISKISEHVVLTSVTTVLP
Method: (§1) The orexin receptor antagonistic activity of the compounds of formula (I) is determined in accordance with the following experimental method.
(§2) Intracellular Calcium Measurements:
(§3) Chinese hamster ovary (CHO) cells expressing the human orexin-1 receptor and the human orexin-2 receptor, respectively, are grown in culture medium (Ham F-12 with L-Glutamine) containing 300 μg/ml G418, 100 U/ml penicillin, 100 μg/ml streptomycin and 10% heat inactivated fetal calf serum (FCS). The cells are seeded at 20,000 cells/well into 384-well black clear bottom sterile plates (Greiner). The seeded plates are incubated overnight at 37° C. in 5% CO2.
(§4) Human orexin-A as an agonist is prepared as 1 mM stock solution in MeOH: water (1:1), diluted in HBSS containing 0.1% bovine serum albumin (BSA), NaHCO3: 0.375 g/l and 20 mM HEPES for use in the assay at a final concentration of 3 nM.
(§5) Antagonists are prepared as 10 mM stock solution in DMSO, then diluted in 384-well plates using DMSO followed by a transfer of the dilutions into in HBSS containing 0.1% bovine serum albumin (BSA), NaHCO3: 0.375 g/l and 20 mM HEPES. On the day of the assay, 50 μl of staining buffer (HBSS containing 1% FCS, 20 mM HEPES, NaHCO3: 0.375 g/l, 5 mM probenecid (Sigma) and 3 μM of the fluorescent calcium indicator fluo-4 AM (1 mM stock solution in DMSO, containing 10% pluronic) is added to each well. The 384-well cell-plates are incubated for 50 min at 37° C. in 5% CO2 followed by equilibration at rt for 30-120 min before measurement.
(§6) Within the Fluorescent Imaging Plate Reader (FLIPR2 or FLIPR Tetra, Molecular Devices), antagonists are added to the plate in a volume of 10 μl/well, incubated for 10 min and finally 10 μl/well of agonist is added. Fluorescence is measured for each well at 1 second intervals, and the height of each fluorescence peak is compared to the height of the fluorescence peak induced by 3 nM orexin-A with vehicle in place of antagonist. For each antagonist, the IC50 value (the concentration of compound needed to inhibit 50% of the agonistic response) is determined. The calculated IC50 values of the compounds may fluctuate depending on the daily cellular assay performance. Fluctuations of this kind are known to those skilled in the art.

human orexin-2 receptor = target: T2, human orexin-2 receptor (Homo sapiens, UniProt O43614); experiment: Intracellular calcium measurement (FLIPR), orexin-A induced response in CHO cells expressing the human orexin-2 receptor; type: cell-based; settings: 3 nM orexin-A as agonist
T2 construct: expressed in transfected cells; host or cells: CHO cells (selected with G418)
T2 sequence (O43614 1-444): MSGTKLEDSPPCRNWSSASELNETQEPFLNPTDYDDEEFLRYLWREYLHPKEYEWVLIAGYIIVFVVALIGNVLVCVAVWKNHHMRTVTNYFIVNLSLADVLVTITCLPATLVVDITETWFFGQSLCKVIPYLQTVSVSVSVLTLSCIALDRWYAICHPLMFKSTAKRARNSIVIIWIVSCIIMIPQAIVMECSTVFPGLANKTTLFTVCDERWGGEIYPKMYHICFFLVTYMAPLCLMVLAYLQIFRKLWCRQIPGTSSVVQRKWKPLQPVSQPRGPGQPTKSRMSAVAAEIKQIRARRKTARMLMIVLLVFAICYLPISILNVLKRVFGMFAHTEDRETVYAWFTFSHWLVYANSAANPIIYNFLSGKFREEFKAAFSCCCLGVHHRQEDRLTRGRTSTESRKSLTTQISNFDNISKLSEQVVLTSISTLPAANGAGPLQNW
Method: as §1, §2, §3, §4, §5, §6

[1] = measured using FLIPR2, read-out: OX1 IC50
[2] = measured using FLIPR2, read-out: OX2 IC50
[3] = measured using FLIPR Tetra (footnote 1), read-out: OX1 IC50
[4] = measured using FLIPR Tetra (footnote 1), read-out: OX2 IC50

IC50 (human orexin-1 receptor; [1]) | IC50 (human orexin-2 receptor; [2]) | IC50 (human orexin-1 receptor; [3]) | IC50 (human orexin-2 receptor; [4]) | SMILES
17 nM | 40 nM | – | – | Cc1ccc(-c2sc(C)nc2C(=O)N2[C@H](CNC(=O)c3c(C)nc4sccn34)C[C@@H]3CCC[C@@H]32)cc1 [Example 1, 6-Methyl-imidazo[2,1-b]thiazole-5-carboxylic acid [(1S,3S,5S)-2-(2-methyl-5-p-tolyl-thiazole-4-carbonyl)-2-azabicyclo[3.3.0]octane-3-ylmethyl]-amide]
18 nM | 95 nM | – | – | Cc1nc2sccn2c1C(=O)NC[C@@H]1C[C@@H]2CCC[C@@H]2N1C(=O)c1nc(C2CC2)sc1-c1cccc(C(F)(F)F)c1 [Example 7, 6-Methyl-imidazo[2,1-b]thiazole-5-carboxylic acid {(1S,3S,5S)-2-[2-cyclopropyl-5-(3-trifluoromethyl-phenyl)-thiazole-4-carbonyl]-2-azabicyclo[3.3.0]octane-3-ylmethyl}-amide]
275 nM | 283 nM | – | – | Cc1nc(C(=O)N2[C@H](CNC(=O)c3noc4ccccc34)C[C@@H]3CCC[C@@H]32)c(-c2cccc(Cl)c2)s1 [Example 9, Benzo[d]isoxazole-3-carboxylic acid {(1S,3S,5S)-2-[5-(3-chloro-phenyl)-2-methyl-thiazole-4-carbonyl]-2-azabicyclo[3.3.0]octane-3-ylmethyl}-amide]
– | – | 11 nM | 12 nM | Cc1nc(C(=O)N2[C@H](CNC(=O)c3cccc4c3CCO4)C[C@@H]3CCC[C@@H]32)c(-c2cccc(C(F)(F)F)c2)s1 [Example 16, 2,3-Dihydro-benzofuran-4-carboxylic acid {(1S,3S,5S)-2-[2-methyl-5-(3-trifluoromethyl-phenyl)-thiazole-4-carbonyl]-2-azabicyclo[3.3.0]octane-3-ylmethyl}-amide]
– | – | 37 nM | 32 nM | Cc1nc(C(=O)N2[C@H](CNC(=O)c3cccc4c3CCO4)C[C@@H]3CCC[C@@H]32)c(-c2ccc(F)c(Br)c2)s1 [Example 19, 2,3-Dihydro-benzofuran-4-carboxylic acid {(1S,3S,5S)-2-[5-(3-bromo-4-fluoro-phenyl)-2-methyl-thiazole-4-carbonyl]-2-azabicyclo[3.3.0]octane-3-ylmethyl}-amide]
– | – | 48 nM | 41 nM | O=C(NC[C@@H]1C[C@@H]2CCC[C@@H]2N1C(=O)c1nc(C2CC2)sc1-c1ccccc1)c1cccc2c1CCO2 [Example 26, 2,3-Dihydro-benzofuran-4-carboxylic acid [(1S,3S,5S)-2-(2-cyclopropyl-5-phenyl-thiazole-4-carbonyl)-2-azabicyclo[3.3.0]octane-3-ylmethyl]-amide]
